Broadly, the IC50 is the point on the concentration scale where inhibition reaches its midpoint. A lower IC50 goes with greater potency in that assay. In general, CC50 refers to the concentration that lowers cell viability or growth by half.

One data set relates to secreted Aβ1-40. In words: Aβ1-40 secretion by APP-transfected neuroblastoma cells (ELISA). In kind it is cell-based. Particulars: Homo sapiens, Neuroblastoma cell; SKNSH-SYSY APPWT cells; concentration decreasing secreted Aβ1-40 to 50% of basal amount. On the procedure:
(§1) Cell Cultures and Transfections to Test Activity on Aβ1-40 and Aβ1-42 Secretion
(§2) Human neuroblastoma cell line SKNSH-SYSY (ATCC® Catalog No. CRL-2266™), HEK (ATCC® CRL-1573™) and COS-1 (ATCC® CRL-1650™) cells were maintained in Dulbecco's modified Eagle medium (DMEM, GIBCO BRL) supplemented with 10% fetal calf serum, 2 mM L-glutamine, 1 mM non-essential amino acids, 50 units/ml penicillin/streptomycin (Invitrogen, France) in a 5% CO2 humidified incubator at 37° C. APP695 cDNA was subcloned into eukaryotic expression vector pcDNA3 (Invitrogen), allowing for a G418 (Invitrogen) selection of clones. This APP cDNA coding for the 695 amino acid long isoform was transfected into SKNSH-SYSY cells using the ethyleneimine polymer ExGen 500 (Euromedex) according to the manufacturer's instructions. The cells expressing APP (SKNSH-SYSY APP^WT) were selected by the addition of 200 μg/ml G418 in the cell medium. To quantify AR which released in the cell culture medium, the collected medium was spun at 200×g to eliminate the cell debris. The concentrations of secreted Aâ1-40 and Aβ1-42 were determined using the Human Aβ (1-40) Assay Kit (IBL) or the INNOTEST™ beta-Amyloid (1-42) ELISA Kit (Innogenetics), according to manufacturer's instructions. The results were expressed as IC50, i.e. the concentration able to decrease to 50% the basal amount of secreted Aβ peptide 1-40 and 1-42.
In general terms: ELISA stands for enzyme-linked immunosorbent assay.

Another data set relates to secreted Aβ1-42. In words: Aβ1-42 secretion by APP-transfected neuroblastoma cells (ELISA). In kind it is cell-based. The note with it: Homo sapiens, Neuroblastoma cell; SKNSH-SYSY APPWT cells; concentration decreasing secreted Aβ1-42 to 50% of basal amount. On the procedure: as §1, §2
The next data set concerns AICD. In words: Quantification of AICD by Western blot in SY5Y-APPWT cells. Type of data set: cell-based, Human. The note with it: compared to a control with a value of 100. As to the method: (§3) Quantifications of APP-CTFs and AICD
(§4) After treatment, SY5Y-APP^WT cells were scrapped and lysed in 1× Lysis Buffer (250 mM NaCl, 50 mM Tris, pH 8.8, 5 mM EDTA, 2.5% Triton X-100, 1% Deoxycholate, 0.1% SDS). For the Western blotting, an equal amount of total proteins (20 μg/lane) was loaded on a 16.5% Tris-Tricine or 8-16% Tris-Glycine polyacrylamide gel.
(§5) SDS-polyacrylamide gel electrophoresis (PAGE) was performed using the Criterion™ Tris-Tricine-precast or Bis-Tris-precast criterion gels (Bio-Rad Bioresearch division). Proteins were transferred to a […] nitrocellulose membrane (Hybond, Amersham Biosciences) at 2.5 mA/cm2 per gel using the Criterion™ Blotter system (Amersham Biosciences), according to the manufacturer's instructions. Proteins were reversibly stained with Ponceau Red in order to check the quality of the transfer of protein. The membranes were blocked in 25 mM Tris-HCl pH 8.0, 150 mM NaCl, 0.1% Tween-20 (v/v) and 5% (w/v) of skimmed milk for 30 min. Membranes were incubated overnight at 4° C. with appropriate dilution of the primary antibodies, and were incubated for 1 h at room temperature with secondary antibody. […] Quantifications were calculated with Image J software (NIH) and the data were collected using Excel Software (Microsoft). The loading variations between Western blot lanes were normalized according to the tubulin signal. Quantification of CTFα and AICD were compared to control conditions (considered as 100 in arbitrary units) and are presented for two concentrations of the drug: 1 and 10 μM.
In general terms: A western blot detects proteins with antibodies after separation by electrophoresis.

A short description of data set [1]: Cytotoxicity evaluation (MTS assay). In kind it is cell-based, Human. Particulars: human, SY5Y-APPWT neuroblastoma cells (expressing APP); SY5Y-APPWT cells, 24 h treatment, MTS. As to the method: Human neuroblastoma cell line SY5Y-APP^WT was used to assess the cytotoxic effects of each compound. SY5Y-APP^WT cells were seeded at 20000 cells/well onto 96-well plates and were cultured in Dulbecco's modified Eagle medium (DMEM, Invitrogen) supplemented with 10% fetal calf serum (PAA), 2 mM L-glutamine (Invitrogen), 1 mM non-essential amino acids (Invitrogen), 50 units/ml penicillin/streptomycin (Invitrogen), and 200 μg G418=geneticin (Invitrogen) (selection for cells expressing APP) in a 5% CO2 humidified incubator at 37° C. After 24 h, the cells were washed and incubated with the compound at 0.1; 0.3; 1; 3; 10; 30 and 100 μM or with DMSO as control diluted in the same culture medium at 37° C. in 5% CO2. After 24 h of treatment, cytotoxicity was determined by using colorimetric MTS assay (CellTiter 96® Aqueous One Solution Cell Proliferation Assay-MTS Promega) according to the protocol of the manufacturer. Absorbance was read at 490 nm and results were expressed as % from control condition considered as 100%.
For orientation: Tetrazolium assays rely on reduction of a dye to a coloured formazan, in cell work by metabolically active cells.

The subject of another data set is CTFα. As to the kind of experiment: Quantification of APP-CTFα by Western blot in SY5Y-APPWT cells. In kind it is cell-based, Human. Particulars: compared to a control with a value of 100. On the procedure: as §3, §4, §5
The target of data set [2] is T1, HIS-tagged valosin-containing protein/p97 (VCP/p97) (Homo sapiens, UniProt P55072).
T1 construct: purchased TebuBio
As to the kind of experiment: VCP interaction assay (competition with biotinylated probe 4.7). In kind it is binding. The note with it: compound 60 μM against biotinylated probe 4.7 20 μM. On the procedure:
Physical interaction between HIS-tagged valosin-containing protein/p97 (VCP/p97) (TebuBio) and biotinylated probe 4.7 was investigated by Enzyme-Linked Assay (ELA) based on HIS-Select® High Sensitivity Nickel coated plates, used following manufacturer's recommendations (Sigma Aldrich). Other chemical compounds were tested in competition with the biotinylated probe 4.7 in this system. Briefly, nickel beads were incubated overnight at 4° C. with 2% casein blocking solution. After a three-time rinse with wash buffer (0.05% Tween20 in phosphate buffer saline), HIS-tagged VCP/p97 protein (5 μg/ml in PBS) was incubated with nickel beads for 90 min at 25° C. Then, the plate was washed three times. Chemical compounds (60 μM) were incubated 10 min at 25° C. before addition of biotinylated probe 4.7 (20 μM) 30 min at 25° C. After five washes, streptavidin-peroxidase (2 μg/ml) was added during 1 h at 25° C., followed by the peroxidase substrate addition 30 min at RT. Reaction was stopped with 0.5M H2SO4 solution and the optical density was read at 450 nm using a microplate reader (VICTOR X4 Wallac, 2030-0040, PerkinElmer). Competition efficiency was quantified by the loss of signal compared to the control condition.

SMILES strings stand for the structures. A value given as a limit tells only on which side of the number the result lay.

T1 sequence (P55072 whole entry): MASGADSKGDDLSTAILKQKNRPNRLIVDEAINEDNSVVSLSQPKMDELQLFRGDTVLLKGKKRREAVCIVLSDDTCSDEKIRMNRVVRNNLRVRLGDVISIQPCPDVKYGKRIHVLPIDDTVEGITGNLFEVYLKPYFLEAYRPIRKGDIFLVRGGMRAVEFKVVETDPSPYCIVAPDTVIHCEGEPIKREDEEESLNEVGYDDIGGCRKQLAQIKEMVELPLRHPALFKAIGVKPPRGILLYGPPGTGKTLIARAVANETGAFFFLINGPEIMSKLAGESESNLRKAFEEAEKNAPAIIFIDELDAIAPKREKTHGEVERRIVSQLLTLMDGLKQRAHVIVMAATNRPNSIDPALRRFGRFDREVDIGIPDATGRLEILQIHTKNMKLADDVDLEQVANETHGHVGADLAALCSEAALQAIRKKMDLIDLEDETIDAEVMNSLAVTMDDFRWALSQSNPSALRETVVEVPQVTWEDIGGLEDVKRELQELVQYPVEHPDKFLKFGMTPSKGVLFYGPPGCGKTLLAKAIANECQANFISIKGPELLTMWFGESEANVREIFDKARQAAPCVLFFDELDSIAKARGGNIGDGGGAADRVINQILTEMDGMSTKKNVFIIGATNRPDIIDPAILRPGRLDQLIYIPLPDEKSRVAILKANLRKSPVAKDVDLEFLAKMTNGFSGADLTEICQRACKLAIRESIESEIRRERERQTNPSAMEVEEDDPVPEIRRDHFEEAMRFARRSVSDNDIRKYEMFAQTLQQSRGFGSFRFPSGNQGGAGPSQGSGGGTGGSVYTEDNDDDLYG

As for `CC(C)CN(CCCN1CCN(CCCN2CCc3[nH]c4ccccc4c3C2)CC1)CC(C)C` [Compound 3.1a, N,N-diisobutyl-3-[4-(3-(1,3,4,5-tetrahydro-1H-pyrido[4,3-b]indol-2-yl)propyl)piperazin-1-yl]propylamine], the values for the IC50 in the data set on secreted Aβ1-40 and in the data set on secreted Aβ1-42 were 1.2 µM and 2.1 µM, respectively. The “AICD (10 μM)” value in the data set on AICD came out at 1081 arbitrary units.
On to `COc1ccc2[nH]c3c(c2c1)CN(CCCN1CCN(CCCN(CC(C)C)CC(C)C)CC1)CC3` [Compound 3.1b, N,N-diisobutyl-3-(4-(3-(8-methoxy-1,3,4,5-tetrahydro-1H-pyrido[4,3-b]indol-2-yl)propyl)piperazin-1-yl)propylamine], for which, in the data set on AICD, the “AICD (10 μM)” value is 16400 arbitrary units. In data set [1], this compound returned a CC50 at 24 h of over 10 µM.
In the case of `Cc1ccc2[nH]c3c(c2c1)CN(CCCN1CCN(CCCN(CC(C)C)CC(C)C)CC1)CC3` [Compound 3.1c, N,N-diisobutyl-3-[4-(3-(8-methyl-1,3,4,5-tetrahydro-1H-pyrido[4,3-b]indol-2-yl)propyl)piperazin-1-yl]propylamine], the IC50 stood at 1 µM in the data set on secreted Aβ1-40 and 10 µM with secreted Aβ1-42. Moreover, the “CTFα (10 μM)” value in the data set on CTFα was determined as 355 arbitrary units. Moreover, the 50% cytotoxic concentration (CC50) at 24 h in data set [1] amounted to 10 µM.
Consider `COc1ccc2[nH]c3c(c2c1)CN(CCCN1CCN(CCN(CC(C)C)CC(C)C)CC1)CC3` [Compound 3.1g, N,N-diisobutyl-2-(4-(3-(8-methoxy-1,3,4,5-tetrahydro-1H-pyrido[4,3-b]indol-2-yl)propyl)piperazin-1-yl)ethylamine], for which the values for the IC50 in the data set with secreted Aβ1-40 and with secreted Aβ1-42 were 2.5 µM and 3.5 µM, respectively.
On to `Fc1ccc2[nH]c3c(c2c1)CN(CCCN1CCN(CCCN(Cc2ccccc2)Cc2ccccc2)CC1)CC3` [Compound 3.1h, N,N-dibenzyl-3-[4-(3-(8-fluoro-1,3,4,5-tetrahydro-1H-pyrido[4,3-b]indol-2-yl)propyl)piperazin-1-yl]propylamine], for which the half-maximal inhibitory concentration (IC50) in the data set with secreted Aβ1-40 and in the data set with secreted Aβ1-42 was 2.5 µM each time. Moreover, in data set [1], the CC50 at 24 h is 4.8 µM.
In the case of `COc1ccc2[nH]c3c(c2c1)CN(CCCN1CCN(CCCN2CCCCC2)CC1)CC3` [Compound 3.1i, 3-(4-(3-(8-methoxy-1,3,4,5-tetrahydro-1H-pyrido[4,3-b]indol-2-yl)propyl)piperazin-1-yl)propylpiperidine], the IC50 is 10 µM with secreted Aβ1-40 and over 10 µM in the data set with secreted Aβ1-42. In data set [1], this compound displayed a CC50 at 24 h of over 100 µM.
With `CC(C)CN(CCCN1CCN(CCCN2CCc3c([nH]c4ccccc34)C2c2ccccc2)CC1)CC(C)C` (stereo not drawn) [Compound 3.2a, N,N-diisobutyl-3-{4-[3-(1-phenyl-1,3,4,9-tetrahydro-1H-beta-carbolin-2-yl)propyl]piperazin-1-yl}propylamine], the IC50 in the data set with secreted Aβ1-40 came out at 2 µM; with secreted Aβ1-42, 5 µM.
Compound `CC(C)CN(CCCN1CCN(CCCN2CCc3c([nH]c4ccc(Cl)cc34)C2)CC1)CC(C)C` [Compound 3.2b, N,N-diisobutyl-3-{4-[3-(6-chloro-1,3,4,9-tetrahydro-1H-beta-carbolin-2-yl)propyl]piperazin-1-yl}propylamine] returned an IC50 with secreted Aβ1-42 of over 10 µM. In addition, the “AICD (10 μM)” value in the data set on AICD was 7417 arbitrary units. For the same compound, the “CTFα (10 μM)” value in the data set with CTFα is 716 arbitrary units. The compound further displayed a CC50 at 24 h in data set [1] of over 100 µM.
As for `CN(C)CCCN1CCN(CCCN2CCc3c([nH]c4ccccc34)C2)CC1` [Compound 3.2d, N,N-dimethyl-3-(4-(3-(1,3,4,9-tetrahydro-1H-beta-carbolin-2-yl)propyl)piperazin-1-yl)propylamine], the IC50 in the data set with secreted Aβ1-40 and in the data set on secreted Aβ1-42 was over 10 µM in each case. Besides, in the data set with AICD, the “AICD (10 μM)” value is on record as 41661 arbitrary units. In addition, the “CTFα (10 μM)” value in the data set with CTFα came out at 1042 arbitrary units. The compound further came in with a CC50 at 24 h in data set [1] of over 100 µM. Besides, in data set [2], the “VCP (competition efficiency, loss of signal compared to the control)” value stood at 70%.
On to `CN(C)CCCN1CCN(CCCN2CCc3c([nH]c4ccccc34)C2c2ccccc2)CC1` (stereo not drawn) [Compound 3.2e, N,N-dimethyl-3-(4-(3-(1-phenyl-1,3,4,9-tetrahydro-1H-beta-carbolin-2-yl)propyl)piperazin-1-yl)propylamine], for which the IC50 in the data set on secreted Aβ1-40 came out at 2.5 µM; with secreted Aβ1-42 it was 2 µM. The “AICD (10 μM)” value with AICD was found to be 4765 arbitrary units. Besides, the “CTFα (10 μM)” value in the data set on CTFα is on record as 234 arbitrary units. The half-maximal cytotoxic concentration (CC50) at 24 h in data set [1] stood at 12 µM.
Turning to `CC(C)CN(CCN1CCN(CCCN2CCc3c([nH]c4ccccc34)C2)CC1)CC(C)C` [Compound 3.2h, N,N-diisobutyl-2-{4-[3-(1,3,4,9-tetrahydro-1H-beta-carbolin-2-yl)propyl]piperazin-1-yl}ethylamine], the IC50 with secreted Aβ1-40 and in the data set on secreted Aβ1-42 was 3 µM throughout.
`c1ccc2c3c([nH]c2c1)CN(CCCN1CCN(CCCN2CCCCC2)CC1)CC3` [Compound 3.2i, 1-[3-(piperidin-1-yl)propyl]-4-(3-{1H,2H,3H,4H,9H-pyrido[3,4-b]indol-2-yl}propyl)piperazine]: the IC50 in the data set with secreted Aβ1-40 and with secreted Aβ1-42 was 5 µM in each case. For the same compound, the 50% cytotoxic concentration (CC50) at 24 h in data set [1] is over 100 µM.
`c1ccc2c3c([nH]c2c1)CN(CCCN1CCN(CCN2CCCCC2)CC1)CC3` [Compound 3.2j, 1-[2-(piperidin-1-yl)ethyl]-4-(3-{1H,2H,3H,4H,9H-pyrido[3,4-b]indol-2-yl}propyl)piperazine]: the IC50 in the data set on secreted Aβ1-40 was 5 µM; with secreted Aβ1-42 it was 3 µM. Besides, the half-maximal cytotoxic concentration (CC50) at 24 h in data set [1] is over 100 µM.

The values above are taken from patent US9714245B2, “Carboline compounds usable in the treatment of neurodegenerative diseases” (ALZPROTECT, priority 2013, dated 2017).
